Data as given in patent US20100204141A1, “USE OF BPP-B AS A THERAPEUTIC AGENT” (priority 2007, published 2010).
Square brackets hold non-standard residues; d marks the D form. Peptide text beside a SMILES is read from it. pGlu = O=C1CC[C@@H](C(=O)O)N1

Assays:
Pseudomonas aeruginosa = Pseudomonas aeruginosa assay; type: cell-based; settings: Pseudomonas aeruginosa growth; peptide 10 micrograms per ml
Experimental: (§1) The antibacterial assay was conducted using clear, U-bottom 96-well microtiter plates. Cation-adjusted Mueller-Hinton Broth (MHB) was used for testing Pseudomonas aeruginosa. The peptide of the invention (0.1 ml of each—10 micrograms per ml—) was dispensed into wells in duplicate. Then the wells were inoculated with 5×10^5 CFU/mL Pseudomonas aeruginosa in 0.1 ml volume. For control purposes, each plate included 4 wells containing media without bacterial inoculum and 4 wells containing medium with inoculum but without peptide. The plates were incubated for 12 h at 37° C., and read visually 18-24 hours post-incubation. Growth control of Pseudomonas aeruginosa was examined first to determine adequacy of media preparations and growth conditions. Acceptable growth is defined as ≧2 mm wide button of cells at the bottom of each sample well, or obvious turbidity in the culture supernatant. Test wells were examined and scored as positive/negative for activity. A positive score for activity is based on complete inhibition of macroscopic growth of the test Pseudomonas aeruginosa.

Streptococcus pneumoniae = Streptococcus pneumoniae assay; type: cell-based; settings: Streptococcus pneumoniae growth; peptide 10 micrograms per ml
Experimental: as §1, with “Streptococcus pneumoniae.” for “Pseudomonas aeruginosa.”, “Streptococcus pneumoniae” for “Pseudomonas aeruginosa”

[1] = Cytotoxicity (MTS cell viability) in the HIV-1 assay; settings: human, CEM-SS cells (uninfected drug cytotoxicity wells)
[2] = Cytotoxicity (dye uptake cell viability) in the HBV assay; type: cell-based; settings: human, HepG2-2.2.15 cells (stable line containing HBV ayw genome), test peptide 10 micrograms per ml
MRSA = test: Methicillin Resistant Staphylococcus Aureus (MRSA) assay; type: cell-based; settings: MRSA growth; peptide 10 micrograms per ml
Experimental: as §1, with “MRSA.” for “Pseudomonas aeruginosa.”, “MRSA” for “Pseudomonas aeruginosa”

[3] = Cytotoxicity testing in MRC-5 cells (CellTiter 96); type: cell-based, human; settings: human, MRC-5 cells (embryonal lung fibroblasts), 6 days incubation, read-out: % Cell viability
Experimental: (§2) For cytotoxicity testing, MRC-5 cells were seeded at 2,500 cells/well in 96 well plates using growth medium. […] The following day, peptide was added and tested in duplicates. After a 6 days incubation period, cell viability was measured using CellTiter 96 Solution (Promega). Plates were incubated for additional 4 hours at 37° C.

HIV-1IIIB = test: HIV-1 antiviral assay (CPE reduction, MTS) in CEM-SS cells; settings: test peptide 10 micrograms per ml, 6 days post-infection
CEM-SS cells = test: Cytotoxicity (MTS cell viability) in the HIV-1 assay; settings: CEM-SS cells; test peptide 10 micrograms per ml; MTS
HCMV strain AD169 = test: HCMV plaque reduction assay in MRC-5 cells; settings: HCMV in MRC-5 cells; peptide 10 micrograms per ml; 7-10 days
MRC-5 cells = test: Cytotoxicity testing in MRC-5 cells (CellTiter 96); type: cell-based, human; settings: 6 days incubation
Experimental: as §2

HepG2-2.2.15 cells = test: Cytotoxicity (dye uptake cell viability) in the HBV assay; type: cell-based; settings: test peptide 10 micrograms per ml

SMILES: CC[C@H](C)[C@H](NC(=O)[C@H](CCCCN)NC(=O)[C@@H]1CCCN1C(=O)[C@H](CCCNC(=N)N)NC(=O)[C@@H]1CCCN1C(=O)[C@@H]1CCCN1C(=O)[C@H](CC(C)C)NC(=O)CNC(=O)[C@@H]1CCC(=O)N1)C(=O)N1CCC[C@H]1C(=O)N1CCC[C@H]1C(=O)O [Bradykinin potentiator B, Pyr-Gly-Leu-Pro-Pro-Arg-Pro-Lys-Ile-Pro-Pro-OH] ([pGlu]GLPPRPKIPP-OH)
- % inhibition (Pseudomonas aeruginosa): 0.0%
- % inhibition (Streptococcus pneumoniae): 0.0%
- viability at 10 micrograms per ml [1]: 100%
- viability at 144 h, 10 micrograms per ml [2]: 100%
- % inhibition (MRSA): 0.0%
- viability at 144 h [3]: 100%

SMILES: CC(C)(C)NC(=O)[C@@H]1CN(Cc2cccnc2)CCN1C[C@@H](O)C[C@@H](Cc1ccccc1)C(=O)N[C@H]1c2ccccc2C[C@H]1O [Indinavir]
- % CPE reduction in HIV-1 infected CEM-SS cells (HIV-1IIIB): 100%
- % Cell viability (CEM-SS cells): 93%

SMILES: Cc1cn([C@H]2C[C@H](N=[N+]=[N-])[C@@H](CO)O2)c(=O)[nH]c1=O [AZT]
- % CPE reduction in HIV-1 infected CEM-SS cells (HIV-1IIIB): 99%
- % Cell viability (CEM-SS cells): 97%

SMILES: Nc1nc(O)c2ncn(COC(CO)CO)c2n1 [Ganciclovir]
- % plaque reduction (HCMV strain AD169): 100%
- % Cell viability (MRC-5 cells): 100%

SMILES: Nc1ccn([C@@H]2CS[C@H](CO)O2)c(=O)n1 [3TC]
- % Cell viability (HepG2-2.2.15 cells): 95.8%
